Earlier results as cited in patent publication US20060251623A1, “Packaged virus-like particles” (priority 2003, published 2006).

Columns and labels:
[1] = test system: VLP-induced CTL responses; details: TLR ligand alone compared with CpGs; Schwarz et al., (2003) Eur. J. Immunol., 33, 1465-1470
blood cells = details: Kuramoto E. et al., Japanese Journal Cancer Research 83, 1128-1131 (1992)

| Compound | Enhancement of VLP-induced CTL responses [1] | Stimulation of blood cells in vitro (blood cells) |
| --- | --- | --- |
| CC(C)Cn1cnc2c(N)nc3ccccc3c21 [imiquimode] | failed to enhance VLP-induced CTL responses in a way similar to CpGs | – |
| GGGGGGGGGGGACGATCGTCGGGGGGGGGG [SEQ ID NO: 54] | – | able to stimulate blood cells in vitro |
| flagellin | failed to enhance VLP-induced CTL responses in a way similar to CpGs | – |
| polyinosinic-polycytidylic acid [poly (I:C)] | failed to enhance VLP-induced CTL responses in a way similar to CpGs | – |
